Data reported in paper PMC9032561, “Simultaneous Inhibitory Effects of All-Trans Astaxanthin on Acetylcholinesterase and Oxidative Stress” (Marine Drugs, 2022).

Target: T1, acetylcholinesterase (Electrophorus electricus, UniProt O42275)
T1 construct: gene ache
Assay: Ellman assay with Lineweaver-Burk kinetics; supported by fluorescence quenching and circular dichroism
Type: biochemical

T1 sequence (O42275 24-633): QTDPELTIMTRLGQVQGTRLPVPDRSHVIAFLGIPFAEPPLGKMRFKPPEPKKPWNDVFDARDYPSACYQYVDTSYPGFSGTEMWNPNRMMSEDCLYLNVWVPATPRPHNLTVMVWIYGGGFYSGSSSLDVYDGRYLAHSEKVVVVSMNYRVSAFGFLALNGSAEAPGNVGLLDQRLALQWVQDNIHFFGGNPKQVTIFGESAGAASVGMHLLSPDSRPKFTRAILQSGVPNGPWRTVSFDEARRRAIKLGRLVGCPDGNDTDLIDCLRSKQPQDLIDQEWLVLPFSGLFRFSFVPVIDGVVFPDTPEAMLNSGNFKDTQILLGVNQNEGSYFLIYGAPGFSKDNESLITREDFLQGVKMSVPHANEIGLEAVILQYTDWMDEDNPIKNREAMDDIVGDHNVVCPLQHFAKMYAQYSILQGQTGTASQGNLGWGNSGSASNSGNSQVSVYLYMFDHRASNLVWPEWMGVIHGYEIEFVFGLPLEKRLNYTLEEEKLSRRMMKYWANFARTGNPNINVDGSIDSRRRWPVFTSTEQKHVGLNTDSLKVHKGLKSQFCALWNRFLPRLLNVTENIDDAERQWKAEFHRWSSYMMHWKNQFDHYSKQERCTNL

Compound `CC1=C(/C=C/C(C)=C/C=C/C(C)=C/C=C/C=C(C)/C=C/C=C(C)/C=C/C2=C(C)C(=O)[C@@H](O)CC2(C)C)C(C)(C)C[C@H](O)C1=O` [all-trans astaxanthin] has an IC50 of 8.64 µM.
